Data from US4188378A, “Anticancer and antiviral activity of 9-β-D-arabinofuranosyl-2-fluoroadenine” (The United States of America as represented by the …, priority 1978, dated 1980).

How the values were obtained:
[1] = system: Leukemia L1210; experiment: Therapeutic activity against leukemia L1210 implanted i.p. in mice; assay type: in vivo
Text: (§1) Inhibition of DNA polymerase is considered to be responsible for the biologic activity of AraA. The levels of F-AraATP attainable in leukemia L1210 cells in mice from the administration of 2-F-AraA are much higher than the level of AraATP atainable in these cells after administration of AraA. As a result of the maintenance of these levels of the inhibitor, F-AraATP, in them, the leukemia cells are effectively destroyed in animals. […] 2-F-AraA was also active against leukemia L1210 when administered by the oral route.
^a 10^5 L1210 ascites cells implanted i.p. on day 0.
^b Treatments reported were selected from a range of dose levels from
lethally toxic to apparently nontoxic.
more than 16% (1/6 treated mice) dying without gross evidence of
progressive leukemia (splenomegaly), except those treated orally, in whic
^c i.p. = intraperitoneal; oral = drug administered directly into
^d % ILS = % increase in life span, compared to untreated control;
excluding 60day survivors.
^e Based on median day of death in dying animals only. Figures in
parentheses based on % survivors.
2-F-AraA was given i.p. or orally on the basis of average mouse body weight. Therapeutic activity based on observed increase in median life span of treated animals over untreated controls and on estimates of the number of viable L1210 cells present at the end of treatment is summarized in Table 2.

[2] = background statement; cited from earlier work
[3] = system: adenosine deaminase; conditions: cited from earlier work
[4] = system: leukemias; conditions: background statement; cited from earlier work
[5] = system: DNA polymerase; experiment: Inhibition of DNA polymerase by the triphosphate; assay type: biochemical; conditions: triphosphate compared with Ara-ATP
Text: as §1

Row | SMILES | activity against leukemia L1210 ([1]; AraA under similar conditions) | leukemia cells at the end of treatment ([1]; AraA, 10^5 cells at the beginning) | therapeutic activity against L1210 leukemia ([1]; in the absence of adenosine deaminase inhibitors) | antiviral activity [2] | deamination of AraA in vivo to AraH [3] | antileukemic activity [4] | inhibition of DNA polymerase [5]
1 | Nc1ncnc2c1ncn2[C@@H]1O[C@H](CO)[C@@H](O)[C@@H]1O [AraA, 9-β-D-arabinofuranosyladenine, reference compound] | essentially devoid of activity | 3×10^8 cells | no significant therapeutic activity | potent antiviral agent | rapid deamination | little potential | 
2 | O=c1[nH]cnc2c1ncn2[C@@H]1O[C@H](CO)[C@@H](O)[C@@H]1O [AraH, 9-β-D-arabinofuranosylhypoxanthine] |  |  |  | some antiviral |  | no antileukemic activity | 
3 | Nc1nc(F)nc2c1ncn2[C@@H]1O[C@H](COP(=O)(O)OP(=O)(O)OP(=O)(O)O)[C@@H](O)[C@@H]1O [F-AraATP] |  |  |  |  |  |  | as potent an inhibitor of DNA polymerase as Ara-ATP
